Target: T1, human recombinant HDAC6 (Homo sapiens, UniProt Q9UBN7)
T1 construct: purchased Calbiochem 382180
T1 sequence (Q9UBN7 1-1215): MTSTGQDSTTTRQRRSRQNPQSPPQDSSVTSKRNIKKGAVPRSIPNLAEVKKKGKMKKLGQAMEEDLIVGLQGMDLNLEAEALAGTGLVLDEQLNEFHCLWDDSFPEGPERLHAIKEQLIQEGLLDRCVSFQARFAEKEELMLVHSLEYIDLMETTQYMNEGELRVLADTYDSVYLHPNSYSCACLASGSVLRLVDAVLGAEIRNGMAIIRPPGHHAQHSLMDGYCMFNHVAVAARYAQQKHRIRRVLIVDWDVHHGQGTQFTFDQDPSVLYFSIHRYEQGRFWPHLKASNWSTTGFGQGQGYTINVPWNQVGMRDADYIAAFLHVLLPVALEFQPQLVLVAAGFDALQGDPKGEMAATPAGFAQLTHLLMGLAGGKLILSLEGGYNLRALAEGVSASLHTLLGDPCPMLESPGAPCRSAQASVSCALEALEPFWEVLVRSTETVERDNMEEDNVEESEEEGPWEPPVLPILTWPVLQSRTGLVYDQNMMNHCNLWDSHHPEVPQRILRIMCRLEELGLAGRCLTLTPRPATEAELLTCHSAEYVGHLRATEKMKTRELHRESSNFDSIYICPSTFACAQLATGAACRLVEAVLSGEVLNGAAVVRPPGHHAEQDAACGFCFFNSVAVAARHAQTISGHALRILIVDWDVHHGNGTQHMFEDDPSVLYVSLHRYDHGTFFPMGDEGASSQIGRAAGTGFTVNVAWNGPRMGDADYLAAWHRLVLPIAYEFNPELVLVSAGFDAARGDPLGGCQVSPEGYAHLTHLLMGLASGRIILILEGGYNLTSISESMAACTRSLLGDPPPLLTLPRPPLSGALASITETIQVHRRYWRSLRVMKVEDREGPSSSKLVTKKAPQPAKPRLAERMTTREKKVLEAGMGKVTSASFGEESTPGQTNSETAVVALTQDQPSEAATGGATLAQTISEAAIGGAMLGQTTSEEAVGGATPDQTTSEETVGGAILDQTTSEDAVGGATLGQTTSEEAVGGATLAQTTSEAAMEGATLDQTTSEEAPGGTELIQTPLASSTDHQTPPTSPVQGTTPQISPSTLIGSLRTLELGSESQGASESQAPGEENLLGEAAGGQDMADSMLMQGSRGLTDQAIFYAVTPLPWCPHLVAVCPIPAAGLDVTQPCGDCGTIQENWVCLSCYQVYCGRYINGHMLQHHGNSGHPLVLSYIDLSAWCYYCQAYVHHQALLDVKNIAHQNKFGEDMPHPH
Assay: HDAC6 enzyme activity inhibition assay (HDAC Fluorimetric Drug Discovery Kit)
Format: biochemical
Conditions: for HDAC6 selectivity (fold): HDAC1 vs HDAC6; for IC50: same protocol as the HDAC1 enzyme activity test
How it was run: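 Human recombinant enzyme, 0.3 μg, incubated with 10 μM Fluor de Lys-SIRT1 substrate and 5-fold compound dilutions at 30° C for 60 min. Developer II added for 30 min, then fluorescence read (Ex 360/Em 460). IC50 values derived from the fluorescence data.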

Row | SMILES | HDAC6 selectivity (fold) | IC50
1 | CS(=O)(=O)N(Cc1ccc(-c2nnc(C(F)F)o2)cc1F)C1CCCCC1 [Compound 11292, N-cyclohexyl-N-(4-(5-(difluoromethyl)-1,3,4-oxadiazol-2-yl)-2-fluorobenzyl)methanesulfonamide] | 1786 fold | 56 nM
2 | CS(=O)(=O)N(Cc1ccc(-c2nnc(C(F)(F)F)o2)cn1)c1cccc(C(F)(F)F)c1 [Compound 11323, N-((5-(5-(trifluoromethyl)-1,3,4-oxadiazol-2-yl)pyridin-2-yl)methyl)-N-(3-(trifluoromethyl)phenyl)methanesulfonamide] | 909 fold | 110 nM
3 | CS(=O)(=O)N(Cc1ccc(-c2nnc(C(F)F)o2)cn1)c1cccc(C(F)(F)F)c1 [Compound 11324, N-((5-(5-(difluoromethyl)-1,3,4-oxadiazol-2-yl)pyridin-2-yl)methyl)-N-(3-(trifluoromethyl)phenyl)methanesulfonamide] | 4762 fold | 21 nM
4 | CC(C)(C)OC(=O)N1CCC(N(Cc2ccc(-c3nnc(C(F)F)o3)cc2F)S(C)(=O)=O)CC1 [Compound 11338, tert-butyl 4-(N-(4-(5-(difluoromethyl)-1,3,4-oxadiazol-2-yl)-2-fluorobenzyl)methylsulfonamido)piperidine-1-carboxylate] | 195 fold | 513 nM
5 | CS(=O)(=O)N(Cc1ccc(-c2nnc(C(F)F)o2)cn1)c1ccc2c(c1)OCO2 [Compound 11345, N-(benzo[d][1,3]dioxol-5-yl)-N-((5-(5-(difluoromethyl)-1,3,4-oxadiazol-2-yl)pyridin-2-yl)methyl)methanesulfonamide] | 3571 fold | 28 nM
6 | COc1ccc(N(Cc2ccc(-c3nnc(C(F)F)o3)cn2)S(C)(=O)=O)cc1 [Compound 11346, N-((5-(5-(difluoromethyl)-1,3,4-oxadiazol-2-yl)pyridin-2-yl)methyl)-N-(4-methoxyphenyl)methanesulfonamide] | 4348 fold | 23 nM
7 | CS(=O)(=O)N(Cc1ccc(-c2nnc(C(F)F)o2)cc1)c1ccc(Br)cn1 [Compound 11347, N-(5-bromopyridin-2-yl)-N-(4-(5-(difluoromethyl)-1,3,4-oxadiazol-2-yl)benzyl)methanesulfonamide] | 971 fold | 103 nM
8 | CS(=O)(=O)N(Cc1ccc(-c2nnc(C(F)F)o2)cc1)c1ccc(Cl)cn1 [Compound 11348] | 758 fold | 132 nM
9 | O=S1(=O)CCC(S(=O)(=O)N(Cc2ccc(-c3nnc(C(F)F)o3)cn2)c2ccccc2)CC1 [Compound 11350, N-((5-(5-(difluoromethyl)-1,3,4-oxadiazol-2-yl)pyridin-2-yl)methyl)-N-phenyltetrahydro-2H-thiopyran-4-sulfonamide 1,1-dioxide] | 10000 fold | 10 nM
10 | CS(=O)(=O)N(Cc1ccc(-c2nnc(C(F)F)o2)cn1)C1CCCCC1 [Compound 11351, N-cyclohexyl-N-((5-(5-(difluoromethyl)-1,3,4-oxadiazol-2-yl)pyridin-2-yl)methyl)methanesulfonamide] | 1449 fold | 69 nM
11 | CS(=O)(=O)N(Cc1ccc(-c2nnc(C(F)F)o2)cn1)c1cccc(Cl)c1 [Compound 11352, N-(3-chlorophenyl)-N-((5-(5-(difluoromethyl)-1,3,4-oxadiazol-2-yl)pyridin-2-yl)methyl)methanesulfonamide] | 12500 fold | 8 nM
12 | CS(=O)(=O)N(Cc1ccc(-c2nnc(C(F)F)o2)cn1)c1cccnc1 [Compound 11353, N-((5-(5-(difluoromethyl)-1,3,4-oxadiazol-2-yl)pyridin-2-yl)methyl)-N-(pyridin-3-yl)methanesulfonamide] | 3846 fold | 26 nM
13 | CS(=O)(=O)N(Cc1ccc(-c2nnc(C(F)F)o2)cn1)c1cccc(Br)c1 [Compound 11354, N-(3-bromophenyl)-N-((5-(5-(difluoromethyl)-1,3,4-oxadiazol-2-yl)pyridin-2-yl)methyl)methanesulfonamide] | 12500 fold | 8 nM
14 | Cc1cccc(N(Cc2ccc(-c3nnc(C(F)F)o3)cn2)S(C)(=O)=O)c1 [Compound 11355, N-((5-(5-(difluoromethyl)-1,3,4-oxadiazol-2-yl)pyridin-2-yl)methyl)-N-(m-tolyl)methanesulfonamide] | 6250 fold | 16 nM
15 | CCS(=O)(=O)N(Cc1ccc(-c2nnc(C(F)F)o2)cn1)c1cccc(Br)c1 [Compound 11366, N-(3-bromophenyl)-N-((5-(5-(difluoromethyl)-1,3,4-oxadiazol-2-yl)pyridin-2-yl)methyl)ethanesulfonamide] | 9091 fold | 11 nM
16 | CN1CCC(S(=O)(=O)N(Cc2ccc(-c3nnc(C(F)F)o3)cn2)c2ccccc2)CC1 [Compound 11367, N-((5-(5-(difluoromethyl)-1,3,4-oxadiazol-2-yl)pyridin-2-yl)methyl)-1-methyl-N-phenylpiperidine-4-sulfonamide] | 6250 fold | 16 nM
17 | CCN1CCC(S(=O)(=O)N(Cc2ccc(-c3nnc(C(F)F)o3)cn2)c2ccccc2)CC1 [Compound 11368, N-((5-(5-(difluoromethyl)-1,3,4-oxadiazol-2-yl)pyridin-2-yl)methyl)-1-ethyl-N-phenylpiperidine-4-sulfonamide] | 6667 fold | 15 nM
18 | CN1CCC(S(=O)(=O)N(Cc2ccc(-c3nnc(C(F)F)o3)cc2F)c2ccccc2)CC1 [Compound 11372, N-(4-(5-(difluoromethyl)-1,3,4-oxadiazol-2-yl)-2-fluorobenzyl)-1-methyl-N-phenylpiperidine-4-sulfonamide] | 11111 fold | 9 nM
19 | CCN1CCC(S(=O)(=O)N(Cc2ccc(-c3nnc(C(F)F)o3)cc2F)c2ccccc2)CC1 [Compound 11373, N-(4-(5-(difluoromethyl)-1,3,4-oxadiazol-2-yl)-2-fluorobenzyl)-1-ethyl-N-phenylpiperidine-4-sulfonamide] | 10000 fold | 10 nM
20 | CC(C)(O)CN1CCC(S(=O)(=O)N(Cc2ccc(-c3nnc(C(F)F)o3)cc2F)c2ccccc2)CC1 [Compound 11377, N-(4-(5-(difluoromethyl)-1,3,4-oxadiazol-2-yl)-2-fluorobenzyl)-1-(2-hydroxy-2-methylpropyl)-N-phenylpiperidine-4-sulfonamide] | 4545 fold | 22 nM
21 | CCS(=O)(=O)N(Cc1ccc(-c2nnc(C(F)F)o2)cn1)c1ccc(CN2CCN(C(C)=O)CC2)cc1 [Compound 11386, N-(4-((4-acetylpiperazin-1-yl)methyl)phenyl)-N-((5-(5-(difluoromethyl)-1,3,4-oxadiazol-2-yl)pyridin-2-yl)methyl)ethanesulfonamide] | 1316 fold | 76 nM
22 | CCS(=O)(=O)N(Cc1ccc(-c2nnc(C(F)F)o2)cn1)c1ccc(CN2CCN(S(C)(=O)=O)CC2)cc1 [Compound 11387, N-((5-(5-(difluoromethyl)-1,3,4-oxadiazol-2-yl)pyridin-2-yl)methyl)-N-(4-((4-(methylsulfonyl)piperazin-1-yl)methyl)phenyl)ethanesulfonamide] | 1087 fold | 92 nM
23 | CCS(=O)(=O)N(Cc1ccc(-c2nnc(C(F)F)o2)cn1)c1cccc(CN2CCN(C(C)=O)CC2)c1 [Compound 11388, N-(3-((4-acetylpiperazin-1-yl)methyl)phenyl)-N-((5-(5-(difluoromethyl)-1,3,4-oxadiazol-2-yl)pyridin-2-yl)methyl)ethanesulfonamide] | 1333 fold | 75 nM
24 | CS(=O)(=O)N(Cc1ccc(-c2noc(C(F)(F)F)n2)cc1)Cc1ccc(-c2nnc(C(F)F)o2)cc1F [Compound 11389, N-(4-(5-(difluoromethyl)-1,3,4-oxadiazol-2-yl)-2-fluorobenzyl)-N-(4-(5-(trifluoromethyl)-1,2,4-oxadiazol-3-yl)benzyl)methanesulfonamide] | 104 fold | 960 nM
